Test results from patent publication US20190307843A1, “SINGLE DOSE METHODS FOR PREVENTING AND TREATING FUNGAL INFECTIONS” (Cidara Therapeutics, Inc., priority 2016, published 2019).
Where two headings read alike, the source gives them in different places. Starred links: 1 amine or outer side, 2 acyl side, 3 side chain; linkers in the order of their positions; H or OH if unused. Positions of bridges follow the written chain, without caps; N, C: chain ends. Non-standard residues stand in square brackets, D forms with d. Residues, ends and D or L forms follow the SMILES beside them. *: point of attachment. Orn(4R-OH,5R-OCH2CH2NMe3+) = C[N+](C)(C)CCO[C@@H](N[*:3])[C@H](O)C[C@H](N[*:1])C(=O)[*:2]; pTerphenylCO(4''-OnC5H11) = CCCCCOc1ccc(-c2ccc(-c3ccc(C(=O)*)cc3)cc2)cc1; hTyr(3S-OH,4S-OH) = N[C@H](C(=O)O)[C@H](O)[C@@H](O)c1ccc(O)cc1; Pro(3S-OH,4S-Me) = C[C@H]1CN[C@H](C(=O)O)[C@H]1O; Hyp = O=C(O)[C@@H]1C[C@@H](O)CN1

What was measured:
Candida auris strains = test: Candida auris antifungal susceptibility testing (CLSI M27-A3), 38 strains; format: cell-based; settings: for MIC: Candidozyma auris, read-out: MIC
A. fumigatus AF293 = test: Murine model of pulmonary aspergillosis (Example 19), terminal lung burden; format: in vivo, Aspergillus fumigatus
Protocol: A secondary endpoint for the study was terminal lung tissue burden. Immediately following confirmation of death, carcasses were frozen at −20° C. prior to tissue dissection and processing. The frozen carcasses were thawed at room temperature, the lungs removed and placed into pre-weighed bead-beating tubes containing 2 mL of PBS and subjected to mechanical disruption. Organ homogenates were diluted further in PBS and quantitatively cultured for A. fumigatus onto SABC and incubated at 30° C. for 24-48 hours.
2. Lung tissue burden data were analysed using the non-parametric Kruskal-Wallis test and if this was statistically significant all pairwise comparisons were analyzed (Conover-Inman).

[1] = system: A. fumigatus strain AF293; test: Murine model of pulmonary aspergillosis (Example 13), survival
[2] = CD101 5mpk Day −3 vs. CD101 5mpk Day −5
[3] = CD101 5mpk Day −5 vs. CD101 10mpk Day −5
[4] = CD101 5mpk Day −5 vs. CD101 20mpk Day −5
[5] = CD101 20mpk Day −1 vs. CD101 20mpk Day −3
[6] = Micafungin 2mpk Day −1 vs. CD101 10mpk Day −1
[7] = Micafungin 2mpk Day −1 vs. CD101 20mpk Day −1

CCCCCOc1ccc(-c2ccc(-c3ccc(C(=O)N[C@H]4C[C@@H](O)[C@@H](OCC[N+](C)(C)C)NC(=O)[C@@H]5[C@@H](O)[C@@H](C)CN5C(=O)[C@H]([C@@H](C)O)NC(=O)[C@H]([C@H](O)[C@@H](O)c5ccc(O)cc5)NC(=O)[C@@H]5C[C@@H](O)CN5C(=O)[C@H]([C@@H](C)O)NC4=O)cc3)cc2)cc1 [CD101] ({pTerphenylCO(4''-OnC5H11)}-[Orn(4R-OH,5R-OCH2CH2NMe3+)]T[Hyp][hTyr(3S-OH,4S-OH)]T[Pro(3S-OH,4S-Me)]; lactam 1-C)
MIC (Candida auris strains; 24 h, strain 28 VCPI 463/P/14, 24 h): 0.125 µg/mL | MIC (Candida auris strains; 24 h, strain 29 VCPI 467/P/14, 24 h): 0.25 µg/mL | MIC (Candida auris strains; 24 h, strain 30 VCPI 471a/P/14, 24 h): 16 µg/mL | MIC (Candida auris strains; 24 h, strain 31 VCPI 478/P/14, 24 h): 0.5 µg/mL | MIC (Candida auris strains; 24 h, strain 32 VCPI 518/P/14, 24 h): 0.5 µg/mL | MIC (Candida auris strains; 24 h, strain 33 VCPI 550/P/14, 24 h): 0.5 µg/mL | MIC (Candida auris strains; 24 h, strain 34 VCPI 714/P/14, 24 h): 0.25 µg/mL | MIC (Candida auris strains; 24 h, strain 35 VCPI 717/P/14, 24 h): 0.25 µg/mL | MIC (Candida auris strains; 24 h, strain 36 VCPI 1060/P/14, 24 h): 0.25 µg/mL | MIC (Candida auris strains; 24 h, strain 37 VCPI 74/P/15, 24 h): 0.25 µg/mL | MIC (Candida auris strains; 24 h, strain 38 VCPI 213/P/15, 24 h): 0.25 µg/mL | MIC (Candida auris strains; 48 h, strain 1 VPCI 669/P/12, 48 h): 0.5 µg/mL | MIC (Candida auris strains; 48 h, strain 2 VCPI 671/P/12, 48 h): 0.5 µg/mL | MIC (Candida auris strains; 48 h, strain 3 VCPI 674/P/12, 48 h): 0.25 µg/mL | MIC (Candida auris strains; 48 h, strain 4 VCPI 683/P/12, 48 h): 0.5 µg/mL | MIC (Candida auris strains; 48 h, strain 5 VCPI 692/P/12, 48 h): 0.5 µg/mL | MIC (Candida auris strains; 48 h, strain 6 VCPI 712/P/12, 48 h): 0.25 µg/mL | MIC (Candida auris strains; 48 h, strain 7 VCPI 471/P/13, 48 h): 0.5 µg/mL | MIC (Candida auris strains; 48 h, strain 8 VCPI 475/P/13, 48 h): 0.5 µg/mL | MIC (Candida auris strains; 48 h, strain 9 VCPI 478/P/13, 48 h): 0.25 µg/mL | MIC (Candida auris strains; 48 h, strain 10 VCPI 479/P/13, 48 h): 0.25 µg/mL | MIC (Candida auris strains; 48 h, strain 11 VCPI 480/P/13, 48 h): 0.25 µg/mL | MIC (Candida auris strains; 48 h, strain 12 VCPI 482/P/13, 48 h): 0.25 µg/mL | MIC (Candida auris strains; 48 h, strain 13 VCPI 483/P/13, 48 h): 0.25 µg/mL | MIC (Candida auris strains; 48 h, strain 14 VCPI 1130/P/13, 48 h): 0.25 µg/mL | MIC (Candida auris strains; 48 h, strain 15 VCPI 1132/P/13, 48 h): 0.25 µg/mL | MIC (Candida auris strains; 48 h, strain 16 VCPI 1133/P/13, 48 h): > 16 µg/mL | MIC (Candida auris strains; 48 h, strain 17 VCPI 105/P/14, 48 h): 0.25 µg/mL | MIC (Candida auris strains; 48 h, strain 18 VCPI 107/P/14, 48 h): 0.125 µg/mL | MIC (Candida auris strains; 48 h, strain 19 VCPI 510/P/14, 48 h): 0.25 µg/mL | MIC (Candida auris strains; 48 h, strain 20 VCPI 511/P/14, 48 h): 0.25 µg/mL | MIC (Candida auris strains; 48 h, strain 21 VCPI 512/P/14, 48 h): 0.25 µg/mL | MIC (Candida auris strains; 48 h, strain 22 VCPI 513/P/14, 48 h): 0.5 µg/mL | MIC (Candida auris strains; 48 h, strain 23 VCPI 514/P/14, 48 h): 0.5 µg/mL | MIC (Candida auris strains; 48 h, strain 24 VCPI 250/P/14, 48 h): 0.25 µg/mL | MIC (Candida auris strains; 48 h, strain 25 VCPI 265/P/14, 48 h): > 16 µg/mL | MIC (Candida auris strains; 48 h, strain 26 VCPI 266/P/14, 48 h): 0.25 µg/mL | MIC (Candida auris strains; 48 h, strain 27 VCPI 462/P/14, 48 h): > 16 µg/mL | MIC (Candida auris strains; 48 h, strain 28 VCPI 463/P/14, 48 h): 0.125 µg/mL | MIC (Candida auris strains; 48 h, strain 29 VCPI 467/P/14, 48 h): 0.25 µg/mL | MIC (Candida auris strains; 48 h, strain 30 VCPI 471a/P/14, 48 h): > 16 µg/mL | MIC (Candida auris strains; 48 h, strain 31 VCPI 478/P/14, 48 h): 1 µg/mL | MIC (Candida auris strains; 48 h, strain 32 VCPI 518/P/14, 48 h): 0.5 µg/mL | MIC (Candida auris strains; 48 h, strain 33 VCPI 550/P/14, 48 h): 1 µg/mL | MIC (Candida auris strains; 48 h, strain 34 VCPI 714/P/14, 48 h): 0.25 µg/mL | MIC (Candida auris strains; 48 h, strain 35 VCPI 717/P/14, 48 h): 0.25 µg/mL | MIC (Candida auris strains; 48 h, strain 36 VCPI 1060/P/14, 48 h): 0.25 µg/mL | MIC (Candida auris strains; 48 h, strain 37 VCPI 74/P/15, 48 h): 0.25 µg/mL | MIC (Candida auris strains; 48 h, strain 38 VCPI 213/P/15, 48 h): 0.25 µg/mL | number of resistant isolates (Candida auris strains; of 38 C. auris isolates): 4 | Group Geometric mean (lung burden) (A. fumigatus AF293; CD101 20 mg/kg IP Day −1): 4.37 × 10^3 CFU/g | Log10 Group Geometric mean (lung burden) (A. fumigatus AF293; CD101 20 mg/kg IP Day −1): 3.64 CFU/g | Log10 reduction from vehicle control (A. fumigatus AF293; CD101 20 mg/kg IP Day −1): 0.53 CFU/g | Group Geometric mean (lung burden) (A. fumigatus AF293; CD101 60 mg/kg IP Day −1): 1.38 × 10^4 CFU/g | Log10 Group Geometric mean (lung burden) (A. fumigatus AF293; CD101 60 mg/kg IP Day −1): 4.14 CFU/g | Log10 reduction from vehicle control (A. fumigatus AF293; CD101 60 mg/kg IP Day −1): 0.03 CFU/g | Mean Survival ([1]; CD101 5 mg/kg IP Day 0): 67.8 h | Median Survival ([1]; CD101 5 mg/kg IP Day 0): 64.6 h | Mean Survival ([1]; CD101 5 mg/kg IP Day −1): 72.1 h | Median Survival ([1]; CD101 5 mg/kg IP Day −1): 67.6 h | Mean Survival ([1]; CD101 5 mg/kg IP Day −3): 70.0 h | Median Survival ([1]; CD101 5 mg/kg IP Day −3): 67.7 h | Mean Survival ([1]; CD101 5 mg/kg IP Day −5): 65.3 h | Median Survival ([1]; CD101 5 mg/kg IP Day −5): 65.3 h | Mean Survival ([1]; CD101 10 mg/kg IP Day −1): 121.8 h | Median Survival ([1]; CD101 10 mg/kg IP Day −1): 81.0 h | Mean Survival ([1]; CD101 10 mg/kg IP Day −3): 76.9 h | Median Survival ([1]; CD101 10 mg/kg IP Day −3): 73.4 h | Mean Survival ([1]; CD101 10 mg/kg IP Day −5): 67.2 h | Median Survival ([1]; CD101 10 mg/kg IP Day −5): 65.7 h | Mean Survival ([1]; CD101 20 mg/kg IP Day −1): 155.6 h | Median Survival ([1]; CD101 20 mg/kg IP Day −1): 72.3 h | Mean Survival ([1]; CD101 20 mg/kg IP Day −3): 91.9 h | Median Survival ([1]; CD101 20 mg/kg IP Day −3): 69.8 h | Mean Survival ([1]; CD101 20 mg/kg IP Day −5): 75.5 h | Median Survival ([1]; CD101 20 mg/kg IP Day −5): 69.8 h | Log-Rank test, survival [1, 2]: 0.0183 | Peto-Prentice (Wilcoxon) test, survival [1, 2]: 0.0426 | Log-Rank test, survival [1, 3]: 0.0009 | Peto-Prentice (Wilcoxon) test, survival [1, 3]: 0.0015 | Log-Rank test, survival [1, 4]: 0.0009 | Peto-Prentice (Wilcoxon) test, survival [1, 4]: 0.0015 | Log-Rank test, survival [1, 5]: 0.0387 | Peto-Prentice (Wilcoxon) test, survival [1, 5]: 0.033 | Peto-Prentice (Wilcoxon) test, survival ([1]; Micafungin 2mpk Day −1 vs. CD101 5mpk Day −1): 0.0467 | Log-Rank test, survival [1, 6]: 0.0201 | Peto-Prentice (Wilcoxon) test, survival [1, 6]: 0.0191 | Log-Rank test, survival [1, 7]: 0.0047 | Peto-Prentice (Wilcoxon) test, survival [1, 7]: 0.0067 | Log-Rank test, survival ([1]; Vehicle vs. CD101 20mpk Day −1): NS (0.0533) | Peto-Prentice (Wilcoxon) test, survival ([1]; Vehicle vs. CD101 20mpk Day −1): 0.0465
